# The kinase profiling compilation of Christmann-Franck et al. (2016)
# How the values were obtained:
# Test in all cases: KINOMEscan competition binding
# Conditions in all cases: compound 10.0 µM
# [1] = biological target: ADCK4 (human) (UniProt Q96D53)
# [2] = biological target: PIP5K1A (human) (UniProt Q99755)
# [3] = biological target: PKMYT1 (human) (UniProt Q99640)
# [4] = test system: FLT3 (human), P36888 [N841I]
# [5] = biological target: FER (human) (UniProt P16591)
# [6] = biological target: PRKG1 (human) (UniProt Q13976)
# [7] = biological target: TEK (human) (UniProt Q02763)
# [8] = biological target: MAP4K3 (human) (UniProt Q8IVH8)
# [9] = biological target: DAPK3 (human) (UniProt O43293)
# [10] = biological target: NTRK1 (human) (UniProt P04629)
# [11] = biological target: LCK (human) (UniProt P06239)
# [12] = biological target: CDK8 (human) (UniProt P49336)
# [13] = biological target: CDK15 (human) (UniProt Q96Q40)
# [14] = biological target: FLT3 (human) (UniProt P36888)
# [15] = biological target: PDGFRA (human) (UniProt P16234)
# [16] = biological target: MAPK4 (human) (UniProt P31152)
# [17] = biological target: PIM2 (human) (UniProt Q9P1W9)
# [18] = biological target: TLK2 (human) (UniProt Q86UE8)
# [19] = biological target: TXK (human) (UniProt P42681)
# [20] = biological target: NEK5 (human) (UniProt Q6P3R8)
# [21] = biological target: PLK1 (human) (UniProt P53350)
# [22] = biological target: STK32C (human) (UniProt Q86UX6)
# [23] = biological target: CLK4 (human) (UniProt Q9HAZ1)
# [24] = biological target: MYLK (human) (UniProt Q15746)
# [25] = biological target: PHKG2 (human) (UniProt P15735)
# [26] = biological target: FGR (human) (UniProt P09769)
# [27] = biological target: STK16 (human) (UniProt O75716)
# [28] = biological target: RET (human) (UniProt P07949)
# [29] = biological target: CAMK1G (human) (UniProt Q96NX5)
# [30] = biological target: MAP2K1 (human) (UniProt Q02750)
# [31] = biological target: SRMS (human) (UniProt Q9H3Y6)
# [32] = biological target: CHEK2 (human) (UniProt O96017)
# [33] = biological target: TGFBR1 (human) (UniProt P36897)
# [34] = biological target: MAP2K4 (human) (UniProt P45985)
# [35] = biological target: STK32B (human) (UniProt Q9NY57)
# [36] = biological target: BMPR1B (human) (UniProt O00238)
# [37] = biological target: TESK1 (human) (UniProt Q15569)
# [38] = biological target: PRKD2 (human) (UniProt Q9BZL6)
# [39] = biological target: MKNK1 (human) (UniProt Q9BUB5)
# [40] = biological target: CDK9 (human) (UniProt P50750)
# [41] = biological target: MAPK7 (human) (UniProt Q13164)
# Chain of SRMS (human) (Q9H3Y6 whole entry, looked up): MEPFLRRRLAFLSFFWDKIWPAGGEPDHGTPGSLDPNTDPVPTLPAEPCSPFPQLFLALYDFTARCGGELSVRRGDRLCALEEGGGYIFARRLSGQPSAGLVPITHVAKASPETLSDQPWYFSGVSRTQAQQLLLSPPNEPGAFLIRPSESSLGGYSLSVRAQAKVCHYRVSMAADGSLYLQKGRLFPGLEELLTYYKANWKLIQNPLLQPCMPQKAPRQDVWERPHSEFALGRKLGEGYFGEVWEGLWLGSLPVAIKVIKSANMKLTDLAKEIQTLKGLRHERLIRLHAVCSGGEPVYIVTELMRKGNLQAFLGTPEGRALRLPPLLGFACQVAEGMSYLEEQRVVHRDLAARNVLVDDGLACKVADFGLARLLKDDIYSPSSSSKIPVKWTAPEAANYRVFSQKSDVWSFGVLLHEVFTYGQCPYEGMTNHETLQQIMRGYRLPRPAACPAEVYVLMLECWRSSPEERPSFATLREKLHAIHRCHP
# Chain of MAP2K1 (human) (Q02750 whole entry, looked up): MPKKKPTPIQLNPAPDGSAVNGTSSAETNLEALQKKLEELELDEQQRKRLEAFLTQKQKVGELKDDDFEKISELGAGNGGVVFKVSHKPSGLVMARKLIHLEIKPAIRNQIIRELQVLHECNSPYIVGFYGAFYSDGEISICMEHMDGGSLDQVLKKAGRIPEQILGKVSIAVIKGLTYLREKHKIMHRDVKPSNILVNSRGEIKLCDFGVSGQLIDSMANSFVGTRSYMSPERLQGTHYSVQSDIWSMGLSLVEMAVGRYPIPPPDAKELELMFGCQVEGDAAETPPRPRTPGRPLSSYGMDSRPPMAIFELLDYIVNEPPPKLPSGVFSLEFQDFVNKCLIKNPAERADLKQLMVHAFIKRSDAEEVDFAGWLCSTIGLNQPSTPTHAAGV
# Chain of TESK1 (human) (Q15569 whole entry, looked up): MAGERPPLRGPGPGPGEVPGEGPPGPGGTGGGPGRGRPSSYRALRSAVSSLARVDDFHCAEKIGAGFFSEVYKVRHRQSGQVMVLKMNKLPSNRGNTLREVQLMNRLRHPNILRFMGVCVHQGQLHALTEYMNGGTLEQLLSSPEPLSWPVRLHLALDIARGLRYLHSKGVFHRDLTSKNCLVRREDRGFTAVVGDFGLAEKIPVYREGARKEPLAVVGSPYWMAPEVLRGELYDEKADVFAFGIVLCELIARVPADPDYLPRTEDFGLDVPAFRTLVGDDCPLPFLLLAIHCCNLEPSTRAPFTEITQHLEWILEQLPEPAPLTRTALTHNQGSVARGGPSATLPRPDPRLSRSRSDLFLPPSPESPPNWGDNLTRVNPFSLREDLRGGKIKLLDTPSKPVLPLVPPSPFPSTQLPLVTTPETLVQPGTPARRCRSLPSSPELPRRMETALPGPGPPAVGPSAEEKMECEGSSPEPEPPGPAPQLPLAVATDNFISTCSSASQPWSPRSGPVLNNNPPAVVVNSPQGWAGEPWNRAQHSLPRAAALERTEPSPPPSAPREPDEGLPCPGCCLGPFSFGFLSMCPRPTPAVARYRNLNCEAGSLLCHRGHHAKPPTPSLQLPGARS
# Chain of CDK9 (human) (P50750 whole entry, looked up): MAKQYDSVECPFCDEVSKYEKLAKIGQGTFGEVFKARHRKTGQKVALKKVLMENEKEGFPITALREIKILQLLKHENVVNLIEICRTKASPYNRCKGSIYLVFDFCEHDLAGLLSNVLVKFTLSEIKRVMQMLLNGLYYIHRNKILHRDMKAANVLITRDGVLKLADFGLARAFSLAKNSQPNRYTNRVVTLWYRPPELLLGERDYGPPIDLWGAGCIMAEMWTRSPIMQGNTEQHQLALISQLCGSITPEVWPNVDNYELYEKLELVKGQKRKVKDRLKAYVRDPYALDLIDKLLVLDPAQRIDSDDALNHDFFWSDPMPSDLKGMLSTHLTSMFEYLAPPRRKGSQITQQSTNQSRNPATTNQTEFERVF
# Chain of STK32B (human) (Q9NY57 whole entry, looked up): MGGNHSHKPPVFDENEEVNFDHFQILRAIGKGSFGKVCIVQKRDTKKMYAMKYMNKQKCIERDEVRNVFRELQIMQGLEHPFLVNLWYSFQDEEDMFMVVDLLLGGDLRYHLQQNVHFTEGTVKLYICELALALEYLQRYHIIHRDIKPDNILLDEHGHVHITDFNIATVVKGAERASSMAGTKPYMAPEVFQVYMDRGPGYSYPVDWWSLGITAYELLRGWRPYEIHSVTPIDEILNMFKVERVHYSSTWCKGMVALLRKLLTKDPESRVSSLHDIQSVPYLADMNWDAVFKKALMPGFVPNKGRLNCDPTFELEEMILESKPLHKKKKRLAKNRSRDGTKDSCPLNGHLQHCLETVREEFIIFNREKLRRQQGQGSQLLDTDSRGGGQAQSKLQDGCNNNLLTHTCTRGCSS
# Chain of DAPK3 (human) (O43293 whole entry, looked up): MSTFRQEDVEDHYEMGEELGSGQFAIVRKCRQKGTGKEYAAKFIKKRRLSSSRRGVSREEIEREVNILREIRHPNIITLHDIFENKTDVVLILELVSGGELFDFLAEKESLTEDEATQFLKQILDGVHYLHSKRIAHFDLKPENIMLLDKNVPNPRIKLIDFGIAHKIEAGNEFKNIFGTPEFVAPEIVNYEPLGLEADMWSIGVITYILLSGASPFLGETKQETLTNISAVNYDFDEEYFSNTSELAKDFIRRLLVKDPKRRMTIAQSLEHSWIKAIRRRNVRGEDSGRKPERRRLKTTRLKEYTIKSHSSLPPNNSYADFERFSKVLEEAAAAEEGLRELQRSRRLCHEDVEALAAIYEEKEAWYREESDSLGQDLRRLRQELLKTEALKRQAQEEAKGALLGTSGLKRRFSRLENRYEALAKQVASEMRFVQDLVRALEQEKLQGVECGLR
# Chain of STK16 (human) (O75716 whole entry, looked up): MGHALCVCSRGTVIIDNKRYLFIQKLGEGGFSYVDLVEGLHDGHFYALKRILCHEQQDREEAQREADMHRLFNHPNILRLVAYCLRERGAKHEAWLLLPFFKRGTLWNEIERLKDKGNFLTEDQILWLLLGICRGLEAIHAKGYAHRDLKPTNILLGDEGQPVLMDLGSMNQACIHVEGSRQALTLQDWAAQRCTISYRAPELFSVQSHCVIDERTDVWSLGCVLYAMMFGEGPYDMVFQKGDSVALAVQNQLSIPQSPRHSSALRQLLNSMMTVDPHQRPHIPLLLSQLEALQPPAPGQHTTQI
# Chain of TXK (human) (P42681 whole entry, looked up): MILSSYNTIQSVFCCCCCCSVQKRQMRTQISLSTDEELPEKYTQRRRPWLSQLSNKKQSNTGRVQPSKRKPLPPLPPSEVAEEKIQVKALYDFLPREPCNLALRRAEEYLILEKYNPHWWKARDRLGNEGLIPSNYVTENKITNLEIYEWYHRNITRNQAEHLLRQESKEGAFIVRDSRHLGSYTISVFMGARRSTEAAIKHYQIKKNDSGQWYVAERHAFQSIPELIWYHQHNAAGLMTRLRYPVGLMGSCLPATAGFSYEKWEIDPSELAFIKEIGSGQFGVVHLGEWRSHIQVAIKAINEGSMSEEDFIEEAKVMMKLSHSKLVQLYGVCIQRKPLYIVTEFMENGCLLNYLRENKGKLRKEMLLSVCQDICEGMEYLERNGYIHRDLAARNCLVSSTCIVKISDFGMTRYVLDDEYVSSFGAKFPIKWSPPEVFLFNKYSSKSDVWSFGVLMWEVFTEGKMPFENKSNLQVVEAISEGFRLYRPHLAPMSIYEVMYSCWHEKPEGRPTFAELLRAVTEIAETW
# Chain of PIP5K1A (human) (Q99755 whole entry, looked up): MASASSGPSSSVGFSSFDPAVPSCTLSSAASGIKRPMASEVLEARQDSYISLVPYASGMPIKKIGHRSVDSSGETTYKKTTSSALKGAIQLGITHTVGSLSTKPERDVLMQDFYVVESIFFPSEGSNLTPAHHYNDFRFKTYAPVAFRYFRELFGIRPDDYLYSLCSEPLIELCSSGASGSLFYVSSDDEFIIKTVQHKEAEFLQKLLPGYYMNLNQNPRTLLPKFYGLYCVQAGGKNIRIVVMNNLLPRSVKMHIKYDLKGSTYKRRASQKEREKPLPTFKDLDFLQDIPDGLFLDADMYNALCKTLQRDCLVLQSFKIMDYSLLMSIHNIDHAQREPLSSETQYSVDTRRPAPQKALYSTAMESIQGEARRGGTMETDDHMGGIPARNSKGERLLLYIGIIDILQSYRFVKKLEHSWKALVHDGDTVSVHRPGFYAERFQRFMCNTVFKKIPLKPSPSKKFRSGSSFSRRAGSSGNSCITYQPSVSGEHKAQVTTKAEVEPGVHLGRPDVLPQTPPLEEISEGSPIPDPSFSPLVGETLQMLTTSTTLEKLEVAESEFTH
# Chain of PRKG1 (human) (Q13976 whole entry, looked up): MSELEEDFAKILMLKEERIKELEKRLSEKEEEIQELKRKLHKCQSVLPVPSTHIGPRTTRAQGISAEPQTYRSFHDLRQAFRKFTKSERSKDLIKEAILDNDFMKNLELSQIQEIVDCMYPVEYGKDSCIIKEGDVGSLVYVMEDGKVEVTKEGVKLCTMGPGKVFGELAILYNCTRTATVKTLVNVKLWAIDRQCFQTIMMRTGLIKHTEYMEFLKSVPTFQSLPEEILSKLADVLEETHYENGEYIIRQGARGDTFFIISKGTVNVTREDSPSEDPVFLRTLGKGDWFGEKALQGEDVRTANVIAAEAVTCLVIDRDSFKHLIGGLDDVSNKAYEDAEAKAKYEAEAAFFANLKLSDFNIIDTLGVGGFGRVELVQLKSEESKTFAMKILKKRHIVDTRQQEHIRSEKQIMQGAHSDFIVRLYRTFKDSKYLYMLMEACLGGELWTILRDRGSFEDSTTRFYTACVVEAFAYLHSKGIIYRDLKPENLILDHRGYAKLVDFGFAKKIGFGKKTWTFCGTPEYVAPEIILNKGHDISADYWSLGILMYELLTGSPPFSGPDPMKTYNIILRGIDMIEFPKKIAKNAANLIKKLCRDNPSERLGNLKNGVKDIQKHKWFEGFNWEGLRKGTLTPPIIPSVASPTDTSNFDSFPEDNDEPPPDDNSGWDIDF
structure (smiles),measurement,setting,value
Nc1ccc(-c2ccc3ncc4ccc(=O)n(-c5cccc(C(F)(F)F)c5)c4c3c2)cn1,"kinase still bound, per cent of control",[1],77%
same,"kinase still bound, per cent of control",[2],78%
same,"kinase still bound, per cent of control",[3],94%
same,"kinase still bound, per cent of control",[4],11%
same,"kinase still bound, per cent of control",[5],95%
same,"kinase still bound, per cent of control",[6],83%
same,"kinase still bound, per cent of control",[7],100%
same,"kinase still bound, per cent of control",[8],63%
same,"kinase still bound, per cent of control",[9],81%
same,"kinase still bound, per cent of control",[10],57%
same,"kinase still bound, per cent of control",[11],100%
same,"kinase still bound, per cent of control",[12],100%
same,"kinase still bound, per cent of control",[13],94%
same,"kinase still bound, per cent of control",[14],12%
same,"kinase still bound, per cent of control",[15],62%
same,"kinase still bound, per cent of control",[16],75%
same,"kinase still bound, per cent of control",[17],100%
same,"kinase still bound, per cent of control",[18],100%
same,"kinase still bound, per cent of control",[19],100%
same,"kinase still bound, per cent of control",[20],94%
same,"kinase still bound, per cent of control",[21],94%
same,"kinase still bound, per cent of control",[22],100%
same,"kinase still bound, per cent of control",[23],34%
same,"kinase still bound, per cent of control",[24],95%
same,"kinase still bound, per cent of control",[25],100%
same,"kinase still bound, per cent of control",[26],100%
same,"kinase still bound, per cent of control",[27],59%
same,"kinase still bound, per cent of control",[28],100%
same,"kinase still bound, per cent of control",[29],88%
same,"kinase still bound, per cent of control",[30],100%
same,"kinase still bound, per cent of control",[31],88%
same,"kinase still bound, per cent of control",[32],100%
same,"kinase still bound, per cent of control",[33],100%
same,"kinase still bound, per cent of control",[34],44%
same,"kinase still bound, per cent of control",[35],100%
same,"kinase still bound, per cent of control",[36],86%
same,"kinase still bound, per cent of control",[37],94%
same,"kinase still bound, per cent of control",[38],100%
same,"kinase still bound, per cent of control",[39],43%
same,"kinase still bound, per cent of control",[40],93%
same,"kinase still bound, per cent of control",[41],100%
O=C(NC1CC1)c1cccc(-c2ccc3c(NC(=O)C4CC4)n[nH]c3c2)c1,"kinase still bound, per cent of control",[1],88%
same,"kinase still bound, per cent of control",[2],28%
same,"kinase still bound, per cent of control",[3],77%
same,"kinase still bound, per cent of control",[4],33%
same,"kinase still bound, per cent of control",[5],78%
same,"kinase still bound, per cent of control",[6],100%
same,"kinase still bound, per cent of control",[7],54%
same,"kinase still bound, per cent of control",[8],60%
same,"kinase still bound, per cent of control",[9],69%
same,"kinase still bound, per cent of control",[10],60%
same,"kinase still bound, per cent of control",[11],100%
same,"kinase still bound, per cent of control",[12],76%
same,"kinase still bound, per cent of control",[13],84%
same,"kinase still bound, per cent of control",[14],63%
same,"kinase still bound, per cent of control",[15],29%
same,"kinase still bound, per cent of control",[16],100%
same,"kinase still bound, per cent of control",[17],100%
same,"kinase still bound, per cent of control",[18],79%
same,"kinase still bound, per cent of control",[19],77%
same,"kinase still bound, per cent of control",[20],60%
same,"kinase still bound, per cent of control",[21],78%
same,"kinase still bound, per cent of control",[22],89%
same,"kinase still bound, per cent of control",[23],100%
same,"kinase still bound, per cent of control",[24],63%
same,"kinase still bound, per cent of control",[25],84%
same,"kinase still bound, per cent of control",[26],100%
same,"kinase still bound, per cent of control",[27],3%
same,"kinase still bound, per cent of control",[28],86%
same,"kinase still bound, per cent of control",[29],75%
same,"kinase still bound, per cent of control",[30],100%
same,"kinase still bound, per cent of control",[31],93%
same,"kinase still bound, per cent of control",[32],100%
same,"kinase still bound, per cent of control",[33],77%
same,"kinase still bound, per cent of control",[34],66%
same,"kinase still bound, per cent of control",[35],100%
same,"kinase still bound, per cent of control",[36],91%
same,"kinase still bound, per cent of control",[37],100%
same,"kinase still bound, per cent of control",[38],100%
same,"kinase still bound, per cent of control",[39],69%
same,"kinase still bound, per cent of control",[40],93%
same,"kinase still bound, per cent of control",[41],93%
Cc1cc([C@@H](C)Nc2ccccc2C(=O)O)c2nc(N3CCOCC3)cc(=O)n2c1,"kinase still bound, per cent of control",[1],79%
same,"kinase still bound, per cent of control",[2],100%
same,"kinase still bound, per cent of control",[3],100%
same,"kinase still bound, per cent of control",[4],44%
same,"kinase still bound, per cent of control",[5],100%
same,"kinase still bound, per cent of control",[6],100%
same,"kinase still bound, per cent of control",[7],100%
same,"kinase still bound, per cent of control",[8],88%
same,"kinase still bound, per cent of control",[9],100%
same,"kinase still bound, per cent of control",[10],88%
same,"kinase still bound, per cent of control",[11],97%
same,"kinase still bound, per cent of control",[12],79%
same,"kinase still bound, per cent of control",[13],100%
same,"kinase still bound, per cent of control",[14],13%
same,"kinase still bound, per cent of control",[15],84%
same,"kinase still bound, per cent of control",[16],98%
same,"kinase still bound, per cent of control",[17],70%
same,"kinase still bound, per cent of control",[18],88%
same,"kinase still bound, per cent of control",[19],90%
same,"kinase still bound, per cent of control",[20],100%
same,"kinase still bound, per cent of control",[21],100%
same,"kinase still bound, per cent of control",[22],82%
same,"kinase still bound, per cent of control",[23],68%
same,"kinase still bound, per cent of control",[24],70%
same,"kinase still bound, per cent of control",[25],100%
same,"kinase still bound, per cent of control",[26],95%
same,"kinase still bound, per cent of control",[27],77%
same,"kinase still bound, per cent of control",[28],100%
same,"kinase still bound, per cent of control",[29],91%
same,"kinase still bound, per cent of control",[30],89%
same,"kinase still bound, per cent of control",[31],63%
same,"kinase still bound, per cent of control",[32],100%
same,"kinase still bound, per cent of control",[33],100%
same,"kinase still bound, per cent of control",[34],100%
same,"kinase still bound, per cent of control",[35],71%
same,"kinase still bound, per cent of control",[36],69%
same,"kinase still bound, per cent of control",[37],100%
same,"kinase still bound, per cent of control",[38],100%
same,"kinase still bound, per cent of control",[39],92%
same,"kinase still bound, per cent of control",[40],100%
same,"kinase still bound, per cent of control",[41],100%
